# Measurements published in patent US7652006B2, “Substituted 1(2H)-phthalazinones and pharmaceutical compositions thereof” (Euro-Celtique S.A., priority 1998, dated 2010).
# Structures can show the parent of a compound that is named as a salt. Where two headings read alike, the source gives them in different places.
# How the values were obtained:
# AMPA receptors = experiment: electrophysiological assay, AMPA receptors expressed in oocyte; type: cell-based, rat; conditions: inhibiting or modulating AMPA receptors expressed in oocyte, read-out: AMPA IC50
# Description: The compounds of the present invention may be assessed by electrophysiological assays in Xenopus oocytes expressing rat whole brain poly(A)^+ RNA (see Keana et. al. J. Med. Chem. 38: 4367-4379 (1995)) or in cultured rat cortical neurons (see Woodward et. al. Mol. Pharmacol. 47: 568-581 (1995)) for AMPA receptor activity. Compounds which are useful for treating or preventing the adverse consequences of stroke, hypoglycemia, neurodegenerative disorders, anxiety, epilepsy or psychosis, or which induce analgesia, will inhibit the currents across the membranes of the oocyte expressing AMPA receptors. However, if the compound potentiates currents across the oocyte membrane, then the compound is expected to be useful in enhancing cognition or treating schizophrenia or neurodegenerative disease such as Parkinson's Disease.
# The potency of antagonism or potentiation for these compounds were determined by electrophysiological assay. Potencies of selective compounds described above in inhibiting or modulating AMPA receptors expressed in oocyte and their anticonvulsant activity against maximal electroshock induced convulsion are shown in Table 1.
# [1] = system: maximal electroshock induced convulsion; experiment: Maximal Electroshock-induced Seizure (MES) test; type: in vivo, mice; conditions: iv, anticonvulsant activity against maximal electroshock induced convulsion; for ED50: Mus musculus
# Description: The compounds of the present invention may be tested for […] anticonvulsant activity after iv or ip injection using a number of anticonvulsant tests in mice (audiogenic seizure model in DBA-2 mice. pentylenetetrazol-induced seizures in mice, maximum electroshock seizure test (MES)). The anticonvulsant activity of the AMPA antagonists may be evaluated in the Maximal Electroshock-induced Seizure (MES) test. Seizures are induced by application of current (50 mA, 60 pulses/sec, […], 1 sec duration, d.c.) through saline-coated corneal electrodes using a Ugo Basile ECT device (Model 7801). […] A tonic seizure is defined as a hindlimb extension in excess of 90 degrees from the plane of the body. Results are treated in a quintal manner. The potency of antagonism or potentiation for these compounds were determined by electrophysiological assay. Potencies of selective compounds described above in inhibiting or modulating AMPA receptors expressed in oocyte and their anticonvulsant activity against maximal electroshock induced convulsion are shown in Table 1.
Compound,IC50 (AMPA receptors),ED50 [1],melting point,MES ED50 [1],IC50 (AMPA receptors; hydrochloride),MES ED50 ([1]; hydrochloride)
"CN(C)CCn1c(=O)nc(-c2ccc3c(c2)OCCO3)c2cc3c(cc21)OCO3 [1-(2-(dimethylamino)ethyl)-6,7-methylenedioxy-4-(3,4-ethylenedioxyphenyl)-quinazolin-2(1H)-one]",0.2 µM,1 mg/kg,220 to 225 °C,–,–,–
"CN(C)CCn1c(=O)nc(-c2ccc3c(c2)OCO3)c2cc3c(cc21)OCO3 [1-(2-(dimethylamino)ethyl)-6,7-methylenedioxy-4-(3,4-methylenedioxyphenyl)-quinazolin-2(1H)-one]",1 µM,–,175 to 182 °C,1.5 mg/kg,–,–
"CN(C)CCn1c(=O)nc(-c2ccc3c(c2)OCO3)c2cc3c(cc21)OCO3 [1-(2-(dimethylamino)ethyl)-6,7-methylenedioxy-4-(3,4-methylenedioxyphenyl)quinazolin-2-(1H)-one hydrochloride]",–,–,–,–,1.1 µM,8.1 mg/kg
"CCn1c(=O)nc(-c2ccc3c(c2)OCCO3)c2cc3c(cc21)OCO3 [1-Ethyl-6,7-methylenedioxy-4-(3,4-ethylenedioxyphenyl)quinazolin-2(1H)-one]",1.1 µM,3 mg/kg,–,–,–,–
"CCn1c(=O)nc(-c2ccc3c(c2)OCO3)c2cc3c(cc21)OCO3 [1-Ethyl-6,7-methylenedioxy-4-(3,4-methylenedioxyphenyl)quinazolin-2(1H)-one]",5 µM,3.4 mg/kg,–,–,–,–
"CC(C)n1c(=O)nc(-c2ccc3c(c2)OCO3)c2cc3oc(=O)n(C)c3cc21 [1-Isopropyl-4-(3,4-methylenedioxyphenyl)-8-methyl-7-oxo-oxazol[5,4-g]quinazolin-2(1H)-one]",2 µM,1.5 mg/kg,–,–,–,–
"CC(C)n1c(=O)nc(-c2cc3c(cc2Cl)OCO3)c2cc3c(cc21)OCO3 [1-Isopropyl-6,7-methylenedioxy-4-(2-chloro-4,5-methylenedioxyphenyl)quinazolin-2(1H)-one]",5.5 µM,6.2 mg/kg,147 to 150 °C,–,–,–
"CC(C)n1c(=O)nc(-c2ccc3ccccc3c2)c2cc3c(cc21)OCO3 [1-Isopropyl-6,7-methylenedioxy-4-(2-naphthyl)quinazolin-2(1H)-one]",2 µM,4.5 mg/kg,213 to 215 °C,–,–,–
"CC(C)n1c(=O)nc(-c2ccc3c(c2)OCO3)c2cc3c(cc21)OCO3 [1-Isopropyl-6,7-methylenedioxy-4-(3,4-methylenedioxyphenyl)quinazolin-2(1H)-one]",2.8 µM,3 mg/kg,–,–,–,–
"CCN(CC)CCn1c(=O)nc(-c2ccc3c(c2)OCO3)c2cc3c(cc21)OCO3 [1-[2-(diethylamino)ethyl]4-(3,4-methylenedioxyphenyl)-6,7-methylenedioxyquinazolin-2(1H)-one]",2 µM,5.2 mg/kg,–,–,–,–
"CCOCCn1c(=O)nc(-c2ccc3c(c2)OCO3)c2cc3c(cc21)OCO3 [1-[(2-Ethoxy)ethyl]-6,7-methylenedioxy-4-(3,4-methylenedioxyphenyl)quinazoline-2-one]",8 µM,10 mg/kg,–,–,–,–
"c1cn(CCc2nc(-c3ccc4c(c3)OCO4)c3cc4c(cc3n2)OCO4)cn1 [2-(Imidazol-1-yl)ethyl-6,7-methylenedioxy-4-(3,4-methylenedioxyphenyl)quinazoline]",4 µM,3.1 mg/kg,160 to 163 °C,–,–,–
"[O-][n+]1c(Cn2ccnc2)nc2cc3c(cc2c1-c1ccc2c(c1)OCO2)OCO3 [2-(Imidazol-1-yl)methyl-6,7-methylenedioxy-4-(3,4-methylenedioxyphenyl)quinazoline-3-oxide]",5 µM,5 mg/kg,–,–,–,–
"[O-][n+]1c(CCl)nc2cc3c(cc2c1-c1ccc2c(c1)OCO2)OCO3 [2-Chloromethyl-6,7-methylenedioxy-4-(3,4-methylenedioxy-phenyl)quinazoline 3-oxide]",8 µM,3.1 mg/kg,–,–,–,–
"O=c1c2cc3c(cc2c(-c2ccc4c(c2)OCO4)nn1CCN1CCCC1)OCO3 [2-[2-(1-Pyrrolidinyl)ethyl]-4-(3,4-methylenedioxyphenyl)-6,7-methylenedioxy-1(2H)-phthalazinone]",10 µM,3.8 mg/kg,–,–,–,–
"CN(C)CCn1nc(-c2ccc3c(c2)OCO3)c2cc3c(cc2c1=O)OCO3 [2-[2-(Dimethylamino)ethyl]-4-(3,4-methylenedioxyphenyl)-6,7-methylenedioxy-1(2H)-phthalazinone]",5 µM,3.5 mg/kg,–,–,–,–
"CC(C)n1c(=O)nc(-c2ccc3c(c2)CCO3)c2cc3c(cc21)OCO3 [4-(2,3-Dihydrobenzofuran-5-yl)-1-isopropyl-6,7-methylenedioxyquinazolin-2(1H)-one]",10 µM,3.3 mg/kg,–,–,–,–
"CN(C)CCOc1nc(-c2ccc3c(c2)OCO3)c2cc3c(cc2n1)OCO3 [6,7-Methylenedioxy-4-(3,4-methylenedioxyphenyl)-2-(2-(dimethylamino)ethoxy)-quinazoline]",2.5 µM,4 mg/kg,–,–,–,–
"[O-][n+]1cnc2cc3c(cc2c1-c1ccc2c(c1)OCO2)OCO3 [6,7-Methylenedioxy-4-(3,4-methylenedioxyphenyl)quinazoline 3-oxide]",7 µM,2.5 mg/kg,–,–,–,–
"CN(C)CCOc1nc(-c2ccc3c(c2)OCO3)c2cc3c(cc2n1)OCO3.Cl [6,7-methylenedioxy-4-(3,4-methylenedioxyphenyl)-2-(2-(dimethylamino)ethoxy)quinazoline hydrochloride]",–,10 mg/kg,–,–,10 µM,–
